We go through 23 compounds from US12239643B2, “Therapeutic agent for inflammatory diseases, autoimmune diseases, fibrotic diseases, and cancer diseases” (MEIJI SEIKA PHARMA CO., LTD., priority 2018, dated 2025).

One data set relates to PDE4. The data set is described as follows: Evaluation of PDE4 inhibitory activity, scintillation proximity assay. The conditions noted are these: scintillation proximity assay. Format: biochemical. The method in brief: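 SPA with [2,8-3H]-cAMP and diluted PDE4 enzyme preparation in 50 mM Tris-HCl pH 7.4, 8.3 mM MgCl2, 1.7 mM EGTA, 3 mg/mL BSA, 120 min at room temperature. Product captured on ZnSO4-containing YSi-SPA beads, scintillation counted; IC50 from inhibition curves vs DMSO control and no-enzyme blank.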
In general terms: In a scintillation proximity assay essentially only radioactivity close to the scintillant gives light.

Data set [1] in a line: Hepatic metabolic stability (rat liver microsome method). It is filed as in vitro ADME. The conditions noted are these: rat liver microsomes 0.5 mg/mL, test substance 1 μM, NADPH 1 mM, 37° C., 30 minutes. The method in brief: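 Rat liver microsomes (0.5 mg/mL final) with test compound (1 μM final) in 100 mM potassium phosphate pH 7.4, 37° C; reaction started with NADPH (1 mM final) after 5 min preincubation. Acetonitrile stop at 0 and 30 min, LC-MS quantitation; % remaining = 30 min/0 min ×100, graded A ≥75%, B 60–<75%, C 45–<60%, D <45%.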
In general terms: Liver microsomes are vesicles of endoplasmic reticulum, rich in cytochrome P450 enzymes.

Setting [2] is: read-out: PDE4 Inhibitory Activity (Evaluation 1; concentration for the inhibition rate of 50%).
[3] abbreviates: class symbols of Evaluation 1, read-out: PDE4 Inhibitory Activity (concentration for the inhibition rate of 50%, IC50), Evaluation 1.

Structures are written as SMILES. Where two headings read alike, the source gives them in different places. Where only a bound is given, the exact number is not on record here.

With `CN(CCO)C(=O)c1ccc(-c2nccs2)c2oc(N3CC4CC(C3)N4)nc12` [Example 356, 2-(3,6-Diazabicyclo[3.1.1]heptan-3-yl)-N-(2-hydroxyethyl)-N-methyl-7-(thiazol-2-yl)benzo[d]oxazole-4-carboxamide], in the data set on PDE4 (setting [2]), the IC50 lay within 0.1 to 1 µM. In addition, the “Residual ratio (% remaining for 30-minute reaction)” value in data set [1] was “A (A: a % remaining rate of 75% or more)”.

With `CC(C)(O)C(F)(F)Oc1ccc(-c2ccsn2)c2oc(N3CC4CCC(C3)N4)nc12` [Example 331, 1-((2-(3,8-Diazabicyclo[3.2.1]octan-3-yl)-7-(isothiazol-3-yl)benzo[d]oxazol-4-yl)oxy)-1,1-difluoro-2-methylpropan-2-ol], in the data set on PDE4 (setting [2]), the IC50 was < 0.1 µM. The “Residual ratio (% remaining for 30-minute reaction)” value in data set [1] was “B (B: 60% or more and less than 75%)”.

As for `O=C(N1CC(O)C1)C(F)(F)Oc1ccc(-c2nccs2)c2oc(N3CC4CC(C3)N4)nc12` [Example 412, 2-((2-(3,6-Diazabicyclo[3.1.1]heptan-3-yl)-7-(thiazol-2-yl)benzo[d]oxazol-4-yl)oxy)-2,2-difluoro-1-(3-hydroxyazetidin-1-yl)ethan-1-one], the IC50 with PDE4 (setting [2]) was < 0.1 µM. In addition, the “Residual ratio (% remaining for 30-minute reaction)” value in data set [1] was “A (A: a % remaining rate of 75% or more)”.

Take `FC(F)(F)Oc1c(Cl)cc(-c2cscn2)c2oc(N3CC4CCC(C3)N4)nc12` [Example 8, 2-(3,8-Diazabicyclo[3.2.1]octan-3-yl)-5-chloro-7-(thiazol-4-yl)-4-(trifluoromethoxy)benzo[d]oxazole]: in the data set on PDE4 (setting [3]), the IC50 was < 0.1 µM. Further, the “Residual ratio (% remaining for 30-minute reaction)” value in data set [1] was “A (A: a % remaining rate of 75% or more)”.

Consider `O=S(=O)(c1ccc(-c2nccs2)c2oc(N3CC4CC(C3)N4)nc12)N1CCOCC1` [Example 391, 2-(3,6-Diazabicyclo[3.1.1]heptan-3-yl)-4-(morpholinosulfonyl)-7-(thiazol-2-yl)benzo[d]oxazole], for which the IC50 with PDE4 (setting [2]) is < 0.1 µM. Also, the “Residual ratio (% remaining for 30-minute reaction)” value in data set [1] was “B (B: 60% or more and less than 75%)”.

For `FC(F)(F)c1ccc(Oc2ccc(-c3nccs3)c3oc(N4CC5CC(C4)N5)nc23)nc1` [Example 336, 2-(3,6-Diazabicyclo[3.1.1]heptan-3-yl)-7-(thiazol-2-yl)-4-((5-(trifluoromethyl)pyridin-2-yl)oxy)benzo[d]oxazole], in the data set on PDE4 (setting [2]), the IC50 is < 0.1 µM. In addition, in data set [1], the “Residual ratio (% remaining for 30-minute reaction)” value was “B (B: 60% or more and less than 75%)”.

Turning to `CC(C)(O)C(F)(F)Oc1ccc(-c2ccccn2)c2oc(N3CC4CCC(C3)N4)nc12` [Example 317, 1-((2-(3,8-Diazabicyclo[3.2.1]octan-3-yl)-7-(pyridin-2-yl)benzo[d]oxazol-4-yl)oxy)-1,1-difluoro-2-methylpropan-2-ol], the IC50 in the data set on PDE4 (setting [2]) was < 0.1 µM. In addition, the “Residual ratio (% remaining for 30-minute reaction)” value in data set [1] is recorded as “A (A: a % remaining rate of 75% or more)”.

As for `OCC(F)(F)Oc1c(Cl)cc(-c2nccs2)c2oc(N3CC4CC(C3)N4)nc12` [Example 401, 2-((2-(3,6-Diazabicyclo[3.1.1]heptan-3-yl)-5-chloro-7-(thiazol-2-yl)benzo[d]oxazol-4-yl)oxy)-2,2-difluoroethan-1-ol], in the data set on PDE4 (setting [2]), the IC50 is < 0.1 µM. Moreover, the “Residual ratio (% remaining for 30-minute reaction)” value in data set [1] is “A (A: a % remaining rate of 75% or more)”.

For `CC(C)(O)C(F)(F)Oc1ccc(-n2cccn2)c2oc(N3CC4CCC(C3)N4)nc12` [Example 316, 1-((2-(3,8-Diazabicyclo[3.2.1]octan-3-yl)-7-(1H-pyrazol-1-yl)benzo[d]oxazol-4-yl)oxy)-1,1-difluoro-2-methylpropan-2-ol], the IC50 with PDE4 (setting [2]) is < 0.1 µM. In addition, the “Residual ratio (% remaining for 30-minute reaction)” value in data set [1] is “A (A: a % remaining rate of 75% or more)”.

Consider `Fc1ccc(-c2cc(Cl)c(OC(F)(F)F)c3nc(N4CC5CCC(C4)N5)oc23)nc1` [Example 10, 2-(3,8-Diazabicyclo[3.2.1]octan-3-yl)-5-chloro-7-(5-fluoropyridin-2-yl)-4-(trifluoromethoxy)benzo[d]oxazole], for which the IC50 with PDE4 (setting [3]) is < 0.1 µM. Further, in data set [1], the “Residual ratio (% remaining for 30-minute reaction)” value is given as “A (A: a % remaining rate of 75% or more)”.

For `c1csc(-c2ccc(O[C@H]3CCOC3)c3nc(N4CC5CC(C4)N5)oc23)n1` [Example 323, 2-(3,6-Diazabicyclo[3.1.1]heptan-3-yl)-4-(((S)-tetrahydrofuran-3-yl)oxy)-7-(thiazol-2-yl)benzo[d]oxazole], in the data set with PDE4 (setting [2]), the IC50 is < 0.1 µM. In addition, in data set [1], the “Residual ratio (% remaining for 30-minute reaction)” value is “B (B: 60% or more and less than 75%)”.

For the compound `OCc1cccnc1Oc1ccc(-c2nccs2)c2oc(N3CC4CC(C3)N4)nc12` [Example 376, (2-((2-(3,6-Diazabicyclo[3.1.1]heptan-3-yl)-7-(thiazol-2-yl)benzo[d]oxazol-4-yl)oxy)pyridin-3-yl)methanol], in the data set on PDE4 (setting [2]), the IC50 is < 0.1 µM. In data set [1], the “Residual ratio (% remaining for 30-minute reaction)” value is listed as “A (A: a % remaining rate of 75% or more)”.

On to `c1csc(-c2ccc(OC3COC3)c3nc(N4CC5CC(C4)N5)oc23)n1` [Example 325, 2-(3,6-Diazabicyclo[3.1.1]heptan-3-yl)-4-(oxetan-3-yloxy)-7-(thiazol-2-yl)benzo[d]oxazole], for which the IC50 with PDE4 (setting [2]) is < 0.1 µM. Also, in data set [1], the “Residual ratio (% remaining for 30-minute reaction)” value is reported as “A (A: a % remaining rate of 75% or more)”.

Consider `[O-][S+](CCO)c1ccc(-c2nccs2)c2oc(N3CC4CC(C3)N4)nc12` (stereo not shown) [Example 349, 2-((2-(3,6-Diazabicyclo[3.1.1]heptan-3-yl)-7-(thiazol-2-yl)benzo[d]oxazol-4-yl)sulfinyl)ethan-1-ol], for which the IC50 with PDE4 (setting [2]) is < 0.1 µM. In data set [1], the “Residual ratio (% remaining for 30-minute reaction)” value is reported as “A (A: a % remaining rate of 75% or more)”.

As for `Cc1csc(-c2ccc(OC(F)(F)C(C)(C)O)c3nc(N4CC5CC(C4)N5)oc23)n1` [Example 306, 1-((2-(3,6-Diazabicyclo[3.1.1]heptan-3-yl)-7-(4-methylthiazol-2-yl)benzo[d]oxazol-4-yl)oxy)-1,1-difluoro-2-methylpropan-2-ol], the IC50 in the data set on PDE4 (setting [2]) lay within 0.1 to 1 µM. Also, the “Residual ratio (% remaining for 30-minute reaction)” value in data set [1] is “A (A: a % remaining rate of 75% or more)”.

Regarding `O=C(NCCO)C(F)(F)Oc1ccc(-c2nccs2)c2oc(N3CC4CC(C3)N4)nc12` [Example 411, 2-((2-(3,6-Diazabicyclo[3.1.1]heptan-3-yl)-7-(thiazol-2-yl)benzo[d]oxazol-4-yl)oxy)-2,2-difluoro-N-(2-hydroxyethyl)acetamide], in the data set with PDE4 (setting [2]), the IC50 is < 0.1 µM. For the same compound, in data set [1], the “Residual ratio (% remaining for 30-minute reaction)” value is “A (A: a % remaining rate of 75% or more)”.

As to `OCCSc1ccc(-c2nccs2)c2oc(N3CC4CC(C3)N4)nc12` [Example 348, 2-((2-(3,6-Diazabicyclo[3.1.1]heptan-3-yl)-7-(thiazol-2-yl)benzo[d]oxazol-4-yl)thio)ethan-1-ol], the IC50 in the data set on PDE4 (setting [2]) is < 0.1 µM. The “Residual ratio (% remaining for 30-minute reaction)” value in data set [1] was “B (B: 60% or more and less than 75%)”.

With `O=C(c1ccc(-c2nccs2)c2oc(N3CC4CC(C3)N4)nc12)N1CCOCC1` [Example 359, (2-(3,6-Diazabicyclo[3.1.1]heptan-3-yl)-7-(thiazol-2-yl)benzo[d]oxazol-4-yl) (morpholino)methanone], in the data set with PDE4 (setting [2]), the IC50 was 0.1 to 1 µM. The “Residual ratio (% remaining for 30-minute reaction)” value in data set [1] is “A (A: a % remaining rate of 75% or more)”.

With `OCC(F)(F)Oc1ccc(-c2ccc(F)cn2)c2oc(N3CC4CC(C3)N4)nc12` [Example 319, 2-((2-(3,6-Diazabicyclo[3.1.1]heptan-3-yl)-7-(5-fluoropyridin-2-yl)benzo[d]oxazol-4-yl)oxy)-2,2-difluoroethan-1-ol], the IC50 in the data set with PDE4 (setting [2]) is < 0.1 µM. For the same compound, the “Residual ratio (% remaining for 30-minute reaction)” value in data set [1] is “A (A: a % remaining rate of 75% or more)”.

Regarding `c1cnc(Oc2ccc(-c3nccs3)c3oc(N4CC5CC(C4)N5)nc23)nc1` [Example 338, 2-(3,6-Diazabicyclo[3.1.1]heptan-3-yl)-4-(pyrimidin-2-yloxy)-7-(thiazol-2-yl)benzo[d]oxazole], the IC50 in the data set on PDE4 (setting [2]) is < 0.1 µM. Also, the “Residual ratio (% remaining for 30-minute reaction)” value in data set [1] is given as “A (A: a % remaining rate of 75% or more)”.

On to `FC(F)(F)c1c(Cl)cc(-n2cccn2)c2oc(N3CC4CC(C3)N4)nc12` [Example 17, 2-(3,6-Diazabicyclo[3.1.1]heptan-3-yl)-5-chloro-7-(1H-pyrazol-1-yl)-4-(trifluoromethyl)benzo[d]oxazole], for which the IC50 in the data set with PDE4 (setting [3]) was < 0.1 µM. For the same compound, the “Residual ratio (% remaining for 30-minute reaction)” value in data set [1] is “B (B: 60% or more and less than 75%)”.

With `OCc1ccc(Oc2ccc(-c3nccs3)c3oc(N4CC5CC(C4)N5)nc23)nc1` [Example 341, (6-((2-(3,6-Diazabicyclo[3.1.1]heptan-3-yl)-7-(thiazol-2-yl)benzo[d]oxazol-4-yl)oxy)pyridin-3-yl)methanol], the IC50 in the data set with PDE4 (setting [2]) is < 0.1 µM. Besides, the “Residual ratio (% remaining for 30-minute reaction)” value in data set [1] is given as “A (A: a % remaining rate of 75% or more)”.

On to `OC1CCN(c2ccc(-c3nccs3)c3oc(N4CC5CC(C4)N5)nc23)CC1` [Example 397, 1-(2-(3,6-Diazabicyclo[3.1.1]heptan-3-yl)-7-(thiazol-2-yl)benzo[d]oxazol-4-yl)piperidin-4-ol], for which the IC50 with PDE4 (setting [2]) is < 0.1 µM. Besides, the “Residual ratio (% remaining for 30-minute reaction)” value in data set [1] is “A (A: a % remaining rate of 75% or more)”.
